In ChEMBL document CHEMBL4325853, “Design, synthesis and antibacterial evaluation of 2,4-disubstituted-6-thiophenyl-pyrimidines” (Eur J Med Chem, 2019):
Values after ≈ are worked out from the molar mass of the structure shown.

Experiments:
Format in all cases: functional
Escherichia coli = experiment: Antibacterial activity against Escherichia coli ATCC 25922 after 18 hrs by broth microdilution method; conditions: ATCC 25922, 18 h
Staphylococcus aureus [1] = experiment: Antibacterial activity against methicillin-resistant Staphylococcus aureus isolate 5426 after 18 hrs by broth microdilution method; conditions: isolate 5426, 18 h
Staphylococcus aureus [2] = experiment: Antibacterial activity against methicillin-resistant Staphylococcus aureus isolate 2671 after 18 hrs by broth microdilution method; conditions: isolate 2671, 18 h
Staphylococcus aureus [3] = experiment: Antibacterial activity against methicillin-resistant Staphylococcus aureus isolate 1610 after 18 hrs by broth microdilution method; conditions: isolate 1610, 18 h
Staphylococcus aureus [4] = experiment: Antibacterial activity against methicillin-resistant Staphylococcus aureus isolate 7864 after 18 hrs by broth microdilution method; conditions: isolate 7864, 18 h
Staphylococcus aureus [5] = experiment: Antibacterial activity against methicillin-resistant Staphylococcus aureus isolate 4548 after 18 hrs by broth microdilution method; conditions: isolate 4548, 18 h
Staphylococcus aureus [6] = experiment: Antibacterial activity against methicillin-resistant Staphylococcus aureus isolate 7664 after 18 hrs by broth microdilution method; conditions: isolate 7664, 18 h
Staphylococcus aureus [7] = experiment: Antibacterial activity against methicillin-resistant Staphylococcus aureus isolate 3170 after 18 hrs by broth microdilution method; conditions: isolate 3170, 18 h
Staphylococcus aureus [8] = experiment: Antibacterial activity against methicillin-resistant Staphylococcus aureus isolate 5239 after 18 hrs by broth microdilution method; conditions: isolate 5239, 18 h
Staphylococcus aureus [9] = experiment: Antibacterial activity against Staphylococcus aureus ATCC 29213 after 18 hrs by broth microdilution method; conditions: ATCC 29213, 18 h
Staphylococcus aureus [10] = experiment: Antibacterial activity against methicillin-resistant Staphylococcus aureus isolate 7449 after 18 hrs by broth microdilution method; conditions: isolate 7449, 18 h
Staphylococcus aureus [11] = experiment: Antibacterial activity against methicillin-resistant Staphylococcus aureus isolate 4023 after 18 hrs by broth microdilution method; conditions: isolate 4023, 18 h
Staphylococcus aureus [12] = experiment: Antibacterial activity against methicillin-resistant Staphylococcus aureus isolate 6515 after 18 hrs by broth microdilution method; conditions: isolate 6515, 18 h
Staphylococcus aureus [13] = experiment: Antibacterial activity against methicillin-resistant Staphylococcus aureus isolate 5035 after 18 hrs by broth microdilution method; conditions: isolate 5035, 18 h
Staphylococcus aureus [14] = experiment: Antibacterial activity against methicillin-resistant Staphylococcus aureus isolate 1220 after 18 hrs by broth microdilution method; conditions: isolate 1220, 18 h
Staphylococcus aureus [15] = experiment: Antibacterial activity against methicillin-resistant Staphylococcus aureus ATCC 33591 after 18 hrs by broth microdilution method; conditions: ATCC 33591, 18 h
Staphylococcus aureus [16] = experiment: Antibacterial activity against methicillin-resistant Staphylococcus aureus isolate 7971 after 18 hrs by broth microdilution method; conditions: isolate 7971, 18 h
Staphylococcus aureus [17] = experiment: Antibacterial activity against methicillin-resistant Staphylococcus aureus isolate 7960 after 18 hrs by broth microdilution method; conditions: isolate 7960, 18 h
Staphylococcus aureus [18] = experiment: Antibacterial activity against methicillin-resistant Staphylococcus aureus isolate 2158 after 18 hrs by broth microdilution method; conditions: isolate 2158, 18 h
Staphylococcus aureus [19] = experiment: Antibacterial activity against methicillin-resistant Staphylococcus aureus isolate 7863 after 18 hrs by broth microdilution method; conditions: isolate 7863, 18 h
Staphylococcus aureus [20] = experiment: Antibacterial activity against methicillin-resistant Staphylococcus aureus isolate 7916 after 18 hrs by broth microdilution method; conditions: isolate 7916, 18 h
Staphylococcus aureus [21] = experiment: Antibacterial activity against methicillin-resistant Staphylococcus aureus isolate 1428 after 18 hrs by broth microdilution method; conditions: isolate 1428, 18 h
Staphylococcus aureus [22] = experiment: Antibacterial activity against methicillin-resistant Staphylococcus aureus ATCC 33592 after 18 hrs by broth microdilution method; conditions: ATCC 33592, 18 h
Staphylococcus aureus [23] = experiment: Antibacterial activity against methicillin-resistant Staphylococcus aureus isolate 8162 after 18 hrs by broth microdilution method; conditions: isolate 8162, 18 h
Staphylococcus aureus [24] = experiment: Antibacterial activity against methicillin-resistant Staphylococcus aureus isolate 5395 after 18 hrs by broth microdilution method; conditions: isolate 5395, 18 h
Staphylococcus aureus [25] = experiment: Antibacterial activity against methicillin-resistant Staphylococcus aureus isolate 8179 after 18 hrs by broth microdilution method; conditions: isolate 8179, 18 h
Enterococcus faecalis = experiment: Antibacterial activity against vancomycin-resistant Enterococcus faecalis ATCC 51575 after 18 hrs by broth microdilution method; conditions: ATCC 51575, 18 h
Staphylococcus aureus [26] = experiment: Antibacterial activity against methicillin-resistant Staphylococcus aureus isolate 8071 after 18 hrs by broth microdilution method; conditions: isolate 8071, 18 h
Staphylococcus aureus [27] = experiment: Antibacterial activity against methicillin-resistant Staphylococcus aureus isolate 7917 after 18 hrs by broth microdilution method; conditions: isolate 7917, 18 h
Staphylococcus aureus [28] = experiment: Antibacterial activity against methicillin-resistant Staphylococcus aureus isolate 7247 after 18 hrs by broth microdilution method; conditions: isolate 7247, 18 h

## CN[C@H](CC(C)C)C(=O)N[C@H]1C(=O)N[C@@H](CC(N)=O)C(=O)N[C@H]2C(=O)N[C@H]3C(=O)N[C@H](C(=O)N[C@H](C(=O)O)c4cc(O)cc(O)c4-c4cc3ccc4O)[C@H](O)c3ccc(c(Cl)c3)Oc3cc2cc(c3O[C@@H]2O[C@H](CO)[C@@H](O)[C@H](O)[C@H]2O[C@H]2C[C@](C)(N)[C@H](O)[C@H](C)O2)Oc2ccc(cc2Cl)[C@H]1O [VANCOMYCIN]
Escherichia coli
  MIC90: 2 µg/mL (≈ 1.38 µM)
Staphylococcus aureus [1]
  MIC90: 1 µg/mL (≈ 0.69 µM)
Staphylococcus aureus [2]
  MIC90: 1 µg/mL (≈ 0.69 µM)
Staphylococcus aureus [3]
  MIC90: 1 µg/mL (≈ 0.69 µM)
Staphylococcus aureus [4]
  MIC90: 1 µg/mL (≈ 0.69 µM)
Staphylococcus aureus [5]
  MIC90: 2 µg/mL (≈ 1.38 µM)
Staphylococcus aureus [6]
  MIC90: 0.5 µg/mL (≈ 0.345 µM)
Staphylococcus aureus [7]
  MIC90: 2 µg/mL (≈ 1.38 µM)
Staphylococcus aureus [8]
  MIC90: 1 µg/mL (≈ 0.69 µM)
Staphylococcus aureus [9]
  MIC90: 1 µg/mL (≈ 0.69 µM)
Staphylococcus aureus [10]
  MIC90: 1 µg/mL (≈ 0.69 µM)
Staphylococcus aureus [11]
  MIC90: 2 µg/mL (≈ 1.38 µM)
Staphylococcus aureus [12]
  MIC90: 1 µg/mL (≈ 0.69 µM)
Staphylococcus aureus [13]
  MIC90: 1 µg/mL (≈ 0.69 µM)
Staphylococcus aureus [14]
  MIC90: 0.5 µg/mL (≈ 0.345 µM)
Staphylococcus aureus [15]
  MIC90: 2 µg/mL (≈ 1.38 µM)
Staphylococcus aureus [16]
  MIC90: 1 µg/mL (≈ 0.69 µM)
Staphylococcus aureus [17]
  MIC90: 2 µg/mL (≈ 1.38 µM)
Staphylococcus aureus [18]
  MIC90: 1 µg/mL (≈ 0.69 µM)
Staphylococcus aureus [19]
  MIC90: 1 µg/mL (≈ 0.69 µM)
Staphylococcus aureus [20]
  MIC90: 1 µg/mL (≈ 0.69 µM)
Staphylococcus aureus [21]
  MIC90: 0.5 µg/mL (≈ 0.345 µM)
Staphylococcus aureus [22]
  MIC90: 2 µg/mL (≈ 1.38 µM)
Staphylococcus aureus [23]
  MIC90: 1 µg/mL (≈ 0.69 µM)
Staphylococcus aureus [24]
  MIC90: 1 µg/mL (≈ 0.69 µM)
Staphylococcus aureus [25]
  MIC90: 1 µg/mL (≈ 0.69 µM)
Enterococcus faecalis
  MIC90: > 64 µg/mL
Staphylococcus aureus [26]
  MIC90: 1 µg/mL (≈ 0.69 µM)
Staphylococcus aureus [27]
  MIC90: 1 µg/mL (≈ 0.69 µM)
Staphylococcus aureus [28]
  MIC90: 1 µg/mL (≈ 0.69 µM)
